Assays:
Format in all cases: in vivo
[1] = test system: ivy-leaved morning glory (Ipomoea hederacea); experiment: Test G Pre-Emergence Protocol; conditions: Ipomoea, pre-emergence, 312 h, evaluated after 13 days; for pest or weed control at 15.625 g/ha: 15.625 g ai/ha; for pest or weed control at 15.625 g/ha / pest or weed control at 250 g/ha: read-out: Morningglory, Ivy-leaved damage rating (100=total damage to plant; 0=no damage to plant); for pest or weed control at 62.5 g/ha: 62.5 g ai/ha, 100=total damage to plant, 0=no damage to plant, read-out: Morningglory, Ivy-leaved damage rating; for pest or weed control at 250 g/ha: 250 g ai/ha
Outline: (§1)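 Visual injury (0–100) at day 13 after a single pre-emergence spray. Rates: 15.625, 62.5, 250 g/ha in acetone–water 50:50 with 0.5% Tween 20. Growth conditions: 24/16° C, 14 h light, 65% humidity.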

[2] = test system: barnyardgrass (Echinochloa crus-galli); experiment: Test G Pre-Emergence Protocol; conditions: Echinochloa crus-galli, pre-emergence, 312 h, evaluated after 13 days; for pest or weed control at 15.625 g/ha: 15.625 g ai/ha; for pest or weed control at 15.625 g/ha / pest or weed control at 250 g/ha: read-out: Barnyardgrass damage rating (100=total damage to plant; 0=no damage to plant); for pest or weed control at 62.5 g/ha: 62.5 g ai/ha, 100=total damage to plant, 0=no damage to plant, read-out: Barnyardgrass damage rating; for pest or weed control at 250 g/ha: 250 g ai/ha
Outline: as §1

[3] = test system: velvetleaf (Abutilon theophrasti); experiment: Test G Pre-Emergence Protocol; conditions: Abutilon theophrasti, pre-emergence, 312 h, evaluated after 13 days; for pest or weed control at 15.625 g/ha: 15.625 g ai/ha; for pest or weed control at 15.625 g/ha / pest or weed control at 250 g/ha: read-out: Velvetleaf damage rating (100=total damage to plant; 0=no damage to plant); for pest or weed control at 62.5 g/ha: 62.5 g ai/ha, 100=total damage to plant, 0=no damage to plant, read-out: Velvetleaf damage rating; for pest or weed control at 250 g/ha: 250 g ai/ha
Outline: as §1

[4] = test system: giant foxtail (Setaria faberi); experiment: Test G Pre-Emergence Protocol; conditions: Setaria faberi, pre-emergence, 312 h, evaluated after 13 days; for pest or weed control at 15.625 g/ha: 15.625 g ai/ha; for pest or weed control at 15.625 g/ha / pest or weed control at 250 g/ha: read-out: Foxtail, Giant damage rating (100=total damage to plant; 0=no damage to plant); for pest or weed control at 62.5 g/ha: 62.5 g ai/ha, 100=total damage to plant, 0=no damage to plant, read-out: Foxtail, Giant damage rating; for pest or weed control at 250 g/ha: 250 g ai/ha
Outline: as §1

corn (Zea mays) [5] = experiment: Test G Pre-Emergence Protocol; conditions: Zea mays, pre-emergence, 312 h, evaluated after 13 days; for plant injury at 15.625 g/ha: 15.625 g ai/ha; for plant injury at 15.625 g/ha / plant injury at 250 g/ha: read-out: Corn damage rating (100=total damage to plant; 0=no damage to plant); for plant injury at 62.5 g/ha: 62.5 g ai/ha, 100=total damage to plant, 0=no damage to plant, read-out: Corn damage rating; for plant injury at 250 g/ha: 250 g ai/ha
Outline: as §1

[6] = test system: redroot pigweed (Amaranthus retroflexus); experiment: Test G Pre-Emergence Protocol; conditions: Amaranthus retroflexus, pre-emergence, 312 h, evaluated after 13 days; for pest or weed control at 15.625 g/ha: 15.625 g ai/ha; for pest or weed control at 15.625 g/ha / pest or weed control at 250 g/ha: read-out: Pigweed, Redroot damage rating (100=total damage to plant; 0=no damage to plant); for pest or weed control at 62.5 g/ha: 62.5 g ai/ha, 100=total damage to plant, 0=no damage to plant, read-out: Pigweed, Redroot damage rating; for pest or weed control at 250 g/ha: 250 g ai/ha
Outline: as §1

[7] = test system: ivy-leaved morning glory (Ipomoea hederacea); experiment: Test G Post-Emergence Protocol; conditions: Ipomoea, post-emergence, 312 h, read-out: Morningglory, Ivy-leaved damage rating; for pest or weed control at 15.625 g/ha: 15.625 g ai/ha, evaluated after 13 days (100=total damage to plant; 0=no damage to plant); for pest or weed control at 62.5 g/ha: 62.5 g ai/ha; for pest or weed control at 62.5 g/ha / pest or weed control at 250 g/ha: evaluated after 13 days, 100=total damage to plant, 0=no damage to plant; for pest or weed control at 250 g/ha: 250 g ai/ha
Outline: (§2)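 Sow in soil; grow 8 d (24/16 °C, 14 h light, 65% humidity); spray 15.625/62.5/250 g/ha in acetone:water 50:50 + 0.5% Tween 20; grow on, water twice daily; score damage 0–100 at 13 d.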

[8] = test system: barnyardgrass (Echinochloa crus-galli); experiment: Test G Post-Emergence Protocol; conditions: Echinochloa crus-galli, post-emergence, 312 h, read-out: Barnyardgrass damage rating; for pest or weed control at 15.625 g/ha: 15.625 g ai/ha, evaluated after 13 days (100=total damage to plant; 0=no damage to plant); for pest or weed control at 62.5 g/ha: 62.5 g ai/ha; for pest or weed control at 62.5 g/ha / pest or weed control at 250 g/ha: evaluated after 13 days, 100=total damage to plant, 0=no damage to plant; for pest or weed control at 250 g/ha: 250 g ai/ha
Outline: as §2

[9] = test system: velvetleaf (Abutilon theophrasti); experiment: Test G Post-Emergence Protocol; conditions: Abutilon theophrasti, post-emergence, 312 h, read-out: Velvetleaf damage rating; for pest or weed control at 15.625 g/ha: 15.625 g ai/ha, evaluated after 13 days (100=total damage to plant; 0=no damage to plant); for pest or weed control at 62.5 g/ha: 62.5 g ai/ha; for pest or weed control at 62.5 g/ha / pest or weed control at 250 g/ha: evaluated after 13 days, 100=total damage to plant, 0=no damage to plant; for pest or weed control at 250 g/ha: 250 g ai/ha
Outline: as §2

[10] = test system: giant foxtail (Setaria faberi); experiment: Test G Post-Emergence Protocol; conditions: Setaria faberi, post-emergence, 312 h, read-out: Foxtail, Giant damage rating; for pest or weed control at 15.625 g/ha: 15.625 g ai/ha, evaluated after 13 days (100=total damage to plant; 0=no damage to plant); for pest or weed control at 62.5 g/ha: 62.5 g ai/ha; for pest or weed control at 62.5 g/ha / pest or weed control at 250 g/ha: evaluated after 13 days, 100=total damage to plant, 0=no damage to plant; for pest or weed control at 250 g/ha: 250 g ai/ha
Outline: as §2

corn (Zea mays) [11] = experiment: Test G Post-Emergence Protocol; conditions: Zea mays, post-emergence, 312 h, read-out: Corn damage rating; for plant injury at 15.625 g/ha: 15.625 g ai/ha, evaluated after 13 days (100=total damage to plant; 0=no damage to plant); for plant injury at 62.5 g/ha: 62.5 g ai/ha; for plant injury at 62.5 g/ha / plant injury at 250 g/ha: evaluated after 13 days, 100=total damage to plant, 0=no damage to plant; for plant injury at 250 g/ha: 250 g ai/ha
Outline: as §2

[12] = test system: redroot pigweed (Amaranthus retroflexus); experiment: Test G Post-Emergence Protocol; conditions: Amaranthus retroflexus, post-emergence, 312 h, read-out: Pigweed, Redroot damage rating; for pest or weed control at 15.625 g/ha: 15.625 g ai/ha, evaluated after 13 days (100=total damage to plant; 0=no damage to plant); for pest or weed control at 62.5 g/ha: 62.5 g ai/ha; for pest or weed control at 62.5 g/ha / pest or weed control at 250 g/ha: evaluated after 13 days, 100=total damage to plant, 0=no damage to plant; for pest or weed control at 250 g/ha: 250 g ai/ha
Outline: as §2

SMILES | pest or weed control at 15.625 g/ha [1] [%] | pest or weed control at 62.5 g/ha [1] [%] | pest or weed control at 250 g/ha [1] [%] | pest or weed control at 15.625 g/ha [2] [%] | pest or weed control at 62.5 g/ha [2] [%] | pest or weed control at 250 g/ha [2] [%] | pest or weed control at 15.625 g/ha [3] [%] | pest or weed control at 62.5 g/ha [3] [%] | pest or weed control at 250 g/ha [3] [%] | pest or weed control at 15.625 g/ha [4] [%] | pest or weed control at 62.5 g/ha [4] [%] | pest or weed control at 250 g/ha [4] [%] | plant injury at 15.625 g/ha (corn (Zea mays) [5]) [%] | plant injury at 62.5 g/ha (corn (Zea mays) [5]) [%] | plant injury at 250 g/ha (corn (Zea mays) [5]) [%] | pest or weed control at 15.625 g/ha [6] [%] | pest or weed control at 62.5 g/ha [6] [%] | pest or weed control at 250 g/ha [6] [%] | pest or weed control at 15.625 g/ha [7] [%] | pest or weed control at 62.5 g/ha [7] [%] | other results
C=C(C)c1ccccc1NC(=O)[C@H]1C(=O)N(C)C[C@@H]1c1cccc(C(F)(F)F)c1 (racemic) [Compound 1736] | 0 | 0 | 0 | 0 | 60 | 90 | 0 | 10 | 10 | 80 | 90 | 90 | 0 | 0 | 60 | 0 | 20 | 10 | 0 | 0 | pest or weed control at 250 g/ha [7]: 40%; pest or weed control at 15.625 g/ha [8]: 0%; pest or weed control at 62.5 g/ha [8]: 30%; pest or weed control at 250 g/ha [8]: 70%; pest or weed control at 15.625 g/ha [9]: 0%; pest or weed control at 62.5 g/ha [9]: 0%; pest or weed control at 250 g/ha [9]: 0%; pest or weed control at 15.625 g/ha [10]: 30%; pest or weed control at 62.5 g/ha [10]: 80%; pest or weed control at 250 g/ha [10]: 80%; plant injury at 15.625 g/ha (corn (Zea mays) [11]): 0%; plant injury at 62.5 g/ha (corn (Zea mays) [11]): 0%; plant injury at 250 g/ha (corn (Zea mays) [11]): 70%; pest or weed control at 15.625 g/ha [12]: 0%; pest or weed control at 62.5 g/ha [12]: 0%; pest or weed control at 250 g/ha [12]: 0%
Cc1cc(C2CN(C)C(=O)C2C(=O)Nc2cccc(F)c2F)cc(C(F)(F)F)c1 (stereo not drawn) [Compound 1723] | 0 | 0 | 10 | 10 | 40 | 90 | 0 | 0 | 10 | 60 | 70 | 90 | 0 | 0 | 60 | 0 | 0 | 30 | 30 | 70 | pest or weed control at 250 g/ha [7]: 40%; pest or weed control at 15.625 g/ha [8]: 30%; pest or weed control at 62.5 g/ha [8]: 80%; pest or weed control at 250 g/ha [8]: 80%; pest or weed control at 15.625 g/ha [9]: 10%; pest or weed control at 62.5 g/ha [9]: 10%; pest or weed control at 250 g/ha [9]: 20%; pest or weed control at 15.625 g/ha [10]: 70%; pest or weed control at 62.5 g/ha [10]: 80%; pest or weed control at 250 g/ha [10]: 80%; plant injury at 15.625 g/ha (corn (Zea mays) [11]): 30%; plant injury at 62.5 g/ha (corn (Zea mays) [11]): 60%; plant injury at 250 g/ha (corn (Zea mays) [11]): 70%; pest or weed control at 15.625 g/ha [12]: 20%; pest or weed control at 62.5 g/ha [12]: 20%; pest or weed control at 250 g/ha [12]: 30%

Reference: US12077503B2, “Substituted cyclic amides and their use as herbicides” (FMC CORPORATION, priority 2015, dated 2024)
